Series [1] in a line: Kinetic inertness of ^225Ac complexes: challenge with excess La^3+. Format: physicochemical. Particulars: 50-fold excess of La^3+; macropa 0.59 μM; RT; over 7 days. As for the experimental part:
Kinetic Inertness of ^225Ac Complexes of Macropa and DOTA.
General. Stock solutions of La(NO3)3 (0.001 M or 0.1 M) were prepared in H2O. To the radiolabeled samples containing macropa (10 μL of 10^−5M stock; 1.0×10^−10 moles) or DOTA (10 μL of 10^_3M stock; 1.0×10^−8 moles) and ^225Ac (10 μL, 26 kBq) in NH4OAc buffer (pH 6, 0.15 M, 150 μL), a 50-fold mole excess of La^3+ was added (5 μL of 0.001 M or 0.1 M stock were added to solutions containing macropa and DOTA, respectively). The solutions were kept at room temperature and analyzed by iTLC at several time points over the course of 8 days. The iTLC plates were developed using citric acid (0.05 M, pH 5) as the eluent. Under these conditions, [^225Ac(macropa)]^+ and [^225Ac(DOTA)]^− remained at the baseline (RF=0) and any unchelated ^225Ac (^225Ac-citrate) migrated with the solvent front (RF=1). Percent of complex remaining intact was calculated by integrating area under the peaks on the radiochromatogram and dividing the counts associated with the ^225Ac-complex (RF=0) by the total counts integrated along the length of the iTLC plate.
The long half-life of ^225Ac necessitates its stable complex retention in vivo to avoid off-target damage to normal tissues arising from the release of free ^225Ac^3+. Furthermore, the stability of ^225Ac complexes against transmetalation and transchelation needs to be high. […]

Series [2] in a line: Stability of [^225Ac(macropa)]^+ in human serum. Type of series: in vitro ADME. As for the experimental part: Transmetalation by La^3+. [^225Ac(macropa)]^+ and [^225Ac(DOTA)] were prepared using 10^−5 M and 10^−3 M stock solutions (10 μL) of macropa and DOTA, respectively, to give final ligand concentrations of 5.9×10^−7 M (macropa) and 5.9×10^−5 M (DOTA). After confirming a radiochemical yield of >90% by TLC using 0.4 M sodium citrate (pH 4) containing 10% MeOH as the mobile phase, 160 μL of human serum (an equal volume based on labeling reaction volume) were added to each radiolabeled solution. A control solution was also prepared in which water was substituted for ligand. The solutions were monitored over the course of 8 days by iTLC. The plates were developed with EDTA (50 mM, pH 5) as the eluent. Under these conditions, [^225Ac(macropa)]^+ and [^225Ac(DOTA)]^− complexes remained at the baseline (RF=0) and any ^225Ac (^225Ac-EDTA) that had been transchelated by serum migrated with the solvent front (RF=1). Percent of complex remaining intact was calculated.
The long half-life of ^225Ac necessitates its stable complex retention in vivo to avoid off-target damage to normal tissues arising from the release of free ^225Ac^3+. Furthermore, the stability of ^225Ac complexes against transmetalation and transchelation needs to be high. To determine the kinetic inertness, [^225Ac(macropa)]^+ was challenged with La^3+ because of the established high affinity of macropa for this metal ion. […]

Structures are written as SMILES.

On to `O=C([O-])c1cccc(CN2CCOCCOCCN(Cc3cccc(C(=O)[O-])n3)CCOCCOCC2)n1.[225Ac+3]` [[^225Ac(macropa)]^+], for which the “^225Ac complex remaining intact (radio-TLC)” value in series [1] came to 98%. For the same compound, the “time ^225Ac^3+ remains complexed in human serum (radio-TLC)” value in series [2] is “at least 8 days”.

For the origin of these results see patent US20220016277A1, “MACROCYCLIC COMPLEXES OF RADIONUCLIDES AND THEIR USE IN RADIOTHERAPY OF CANCER” (Cornell University, priority 2018, published 2022).
